System: IL1-β release upon NLRP3 activation in peripheral blood mononuclear cells (PBMC)
Test: PBMC IC50 determination assay (IL1-β release, ELISA)
Format: cell-based
Settings: Homo sapiens, PBMC, read-out: PBMCs, IC50, µM
Description: PBMC IC50 determination assay
The compounds of the present invention were tested for their inhibitory activity against IL1-β release upon NLRP3 activation in peripheral blood mononuclear cells (PBMC).
PBMC were isolated from buffy coats by density gradient centrifugation on Histopaque-1077 (Sigma, cat no. 10771). Isolated cells were seeded into the wells of a 96-well plate and incubated for 3 h with lipopolysaccharide (LPS). Following medium exchange, the compounds of the present invention were added (a single compound per well) and the cells were incubated for 30 min. Next, the cells were stimulated with nigericin (10 µM) for 1 h and the cell culture media from the wells were collected for further analysis.
The release of IL1-β into the media was determined by a quantitative detection of IL1-β in the media using an IL-1β enzyme-linked immunosorbent assay (ELISA) Ready-SET-Go!, eBioscience cat. No. 88-7261-88. Briefly, in a first step, high affinity binding plates (Coming, Costar 9018 or NUNC Maxisorp Cat No. 44-2404) were coated overnight at 4°C with specific capture antibody included in the kit (anti-human IL-1β ref. 14-7018-68). Subsequently, plates were blocked with blocking buffer for 1 h at room temperature (rt) and after washing with a buffer (PBS with 0,05% Tween-20) incubated with protein standard and culture media. After 2 h of incubation at rt, plates were washed and incubated with biotinylated detection antibody included in the kit (anti-human IL-1β Biotin ref. 33-7110-68) for 1 h at rt. Plates were washed and incubated with HRP-streptavidin for 30 min at rt and washed again. The signal was developed after addition of 3,39,5,59-tetramethylbenzidine-peroxidase (TMB) until color appeared and the reaction was stopped by 2 N H2SO4. A microplate spectrophotometer (BioTek) was used to detect signals with […]. The detection range of IL1-β ELISA was […].

Structure (SMILES)	IC50
CC(=O)c1ccn(S(=O)(=O)NC(=O)Nc2c3c(cc4c2CCC4)CCC3)c1 [Example 1B]	1.27 µM
O=C(Nc1c2c(cc3c1CCC3)CCC2)NS(=O)(=O)n1ccc(C(=O)c2ccccc2)c1 [Example 1P]	2.91 µM
O=C(Nc1cc2c(c3c1CCC3)CCC2)NS(=O)(=O)n1ccc(C(=O)C(F)(F)F)c1 [Example 1Q]	0.33 µM
O=C(Nc1c2c(cc3c1CCC3)CCC2)NS(=O)(=O)n1ccc2ccncc21 [Example 1H]	4.93 µM
O=C(Nc1c2c(cc3c1CCC3)CCC2)NS(=O)(=O)n1ccc2ccccc21 [Example 1A]	1.05 µM
O=C(Nc1c2c(cc3c1CCC3)CCC2)NS(=O)(=O)n1ccc(C2CC2)c1 [Example 1F]	0.4 µM
O=C(Nc1c2c(cc3c1CCC3)CCC2)NS(=O)(=O)n1ccc(C(=O)C(F)(F)F)c1 [Example 1L]	0.074 µM
COC(=O)c1ccn(S(=O)(=O)NC(=O)Nc2c3c(cc4c2CCC4)CCC3)c1 [Example 1C]	4.07 µM
CC(C)(O)c1ccn(S(=O)(=O)NC(=O)Nc2c3c(cc4c2CCC4)CCC3)c1 [Example 3A]	0.66 µM
O=C(Nc1c2c(cc3c1CCC3)CCC2)NS(=O)(=O)n1ccc([N+](=O)[O-])c1 [Example 1J]	26.8 µM
O=C(Nc1c2c(cc3c1CCC3)CCC2)NS(=O)(=O)n1cccc1 [Example 1K]	1.4 µM
CC(=O)c1ccn(S(=O)(=O)NC(=O)Nc2c3c(c(Cl)c4c2CCC4)CCC3)c1 [Example 1I]	0.91 µM
CC(=O)c1cn(S(=O)(=O)NC(=O)Nc2c3c(cc4c2CCC4)CCC3)cc1-c1ccccc1 [Example 1T, 3=[(3-acetyl-4-phenyl-1H-pyrrol-1-yl)sulfonyl]-1-(1,2,3,5,6,7-hexahydro-s-indacen-4-yl)-3-sodiourea propan-2-ol solvate]	4.76 µM
O=C(Nc1c2c(cc3c1CCC3)CCC2)NS(=O)(=O)n1ccc2ncccc21 [Example 1D]	10.5 µM
O=C(Nc1c2c(cc3c1CCC3)CCCC2)NS(=O)(=O)n1ncc2ccccc21 [Example 1M]	4.62 µM
O=C(Nc1c2c(cc3c1CCC3)CCC2)NS(=O)(=O)n1cc2c(c1)C(=O)CC2 [Example 1O]	4.13 µM
O=C(Nc1c2c(cc3c1CCC3)CCC2)NS(=O)(=O)n1ncc2ccccc21 [Example 1E]	1 µM
CCC(=O)c1ccn(S(=O)(=O)NC(=O)Nc2c3c(cc4c2CCC4)CCC3)c1 [Example 1G]	5 µM
O=C(Nc1cc2c(c3c1CCCC3)CCC2)NS(=O)(=O)n1ncc2ccccc21 [Example 1N, 3-{1H,2H,3H,6H,7H,8H,9H -cyclopenta[a]naphthalen-5-yl}-1-(H-indazole-1-sulfonyl)-1-sodiourea]	2.03 µM

Same assay, conditions: Homo sapiens; PBMC primed 3 h with LPS, compound 30 min, nigericin (10 µM) 1 h; IL1-β in media by ELISA; values with * are mean values based on 2-6 measurements, all others single measurements; read-out: PBMCs, IC50

Structure (SMILES)	IC50
CC(O)c1ccn(S(=O)(=O)NC(=O)Nc2c3c(cc4c2CCC4)CCC3)c1 (stereo not shown) [Example 2A, 3-(1,2,3,5,6,7-hexahydro-s-indacen-4-yl)-1-{[3-(1-hydroxyethyl)-1H-pyrrol-1-yl]sulfonyl}urea]	1.97 µM
O=C(Nc1c2c(cc3c1CCC3)CCC2)NS(=O)(=O)n1cc2c(c1)C(=O)CCC2 [Example 1R, ammonium [(1,2,3,5,6,7-hexahydro-s-indacen-4-yl)carbamoyl][(4-oxo-4,5,6,7-tetrahydro-2H-isoindol-2-yl)sulfonyl]azanide]	1.27 µM
C=C(C)c1ccn(S(=O)(=O)NC(=O)Nc2c3c(cc4c2CCC4)CCC3)c1 [Example 4A, 3-(1,2,3,5,6,7-hexahydro-s-indacen-4-yl)-1-{[3-(prop-1-en-2-yl)-1H-pyrrol-1-yl]sulfonyl}urea]	0.81 µM
O=C(Nc1cc2c(c3c1CCC3)CCC2=O)NS(=O)(=O)n1ccc(C(=O)C(F)(F)F)c1 [Example 1U, ammonium [(6-oxo-1,2,3,6,7,8-hexahydroas-indacen-4-yl)carbamoyl]({[3-(trifluoroacetyl)-1H-pyrrol-1-yl]sulfonyl})azanide]	1.82 µM
O=C(Nc1c2c(cc3c1CCC3)CCC2)NS(=O)(=O)n1ccc(C(O)C(F)(F)F)c1 (stereo not shown) [Example 2B, 3-(1,2,3,5,6,7-hexahydro-s-indacen-4-yl)-1-{[3-(2,2,2-trifluoro-1-hydroxyethyl)-1H-pyrrol-1-yl]sulfonyl}urea]	0.98 µM
Cc1cccn1S(=O)(=O)NC(=O)Nc1c2c(cc3c1CCC3)CCC2 [Example 1S, ammonium [(1,2,3,5,6,7-hexahydro-s-indacen-4-yl)carbamoyl][(2-methyl-1H-pyrrol-1-yl)sulfonyl]azanide]	0.27 µM
